# Activity calls are given as the source filed them. No cut-off for these calls is given here.
# Experiments:
# HL-60 = assay: Antiproliferative activity against human HL60 cells by MTT assay; format: functional, cell-based
# A549 [1] = assay: Cell cycle arrest in human A549 cells assessed as accumulation at subG0 phase at 22 uM after 24 hrs by propidium iodide staining based flow cytometry (reference value: 2 +/- 0.8%); format: functional
# A549 [2] = assay: Cell cycle arrest in human A549 cells assessed as accumulation at G0/G1 phase at 22 uM after 24 hrs by propidium iodide staining based flow cytometry (reference value: 60 +/- 1%); format: functional
# A549 [3] = assay: Cell cycle arrest in human A549 cells assessed as accumulation at S phase at 22 uM after 24 hrs by propidium iodide staining based flow cytometry (reference value: 28 +/- 0.6%); format: functional
# A549 [4] = assay: Cell cycle arrest in human A549 cells assessed as accumulation at G2/M phase at 22 uM after 24 hrs by propidium iodide staining based flow cytometry (reference value: 10 +/- 0.8%); format: functional
# A549 [5] = assay: Induction of apoptosis in human A549 cells at 100 uM after 20 to 24 hrs by Annexin V-FITC/propidium iodide staining based flow cytometry (reference value: 16%); format: functional
# A549 [6] = assay: Induction of apoptosis in human A549 cells at 50 uM after 20 to 24 hrs by Annexin V-FITC/propidium iodide staining based flow cytometry (reference value: 16%); format: functional
# HMEC-1 = assay: Antiangiogenic activity against HMEC1 cells after 20 hrs by tube formation assay; conditions: Homo sapiens, HMEC-1, 20 h
# A549 [7] = assay: Cell cycle arrest in human A549 cells assessed as accumulation at subG0 phase at […] after 24 hrs by propidium iodide staining based flow cytometry (reference value: 2 +/- 0.8%); format: functional
# A549 [8] = assay: Cell cycle arrest in human A549 cells assessed as accumulation at G0/G1 phase at […] after 24 hrs by propidium iodide staining based flow cytometry (reference value: 60 +/- 1%); format: functional
# A549 [9] = assay: Cell cycle arrest in human A549 cells assessed as accumulation at S phase at […] after 24 hrs by propidium iodide staining based flow cytometry (reference value: 28 +/- 0.6%); format: functional
# A549 [10] = assay: Cell cycle arrest in human A549 cells assessed as accumulation at G2/M phase at […] after 24 hrs by propidium iodide staining based flow cytometry (reference value: 10 +/- 0.8%); format: functional
# [11] = target: Vascular endothelial growth factor receptor 2 (Homo sapiens) (UniProt P35968); assay: Inhibition of VEGFR2 internalization in HMEC1 cells assessed as membrane VEGFR2 level at 15 uM after 24 hrs by flow cytometry (reference value: 100%); format: cell-based; set-up: scale not given: the % may be the effect or the level left
# [12] = target: Vascular endothelial growth factor receptor 2 (Homo sapiens) (UniProt P35968); assay: Inhibition of VEGFR2 internalization in HMEC1 cells assessed as total VEGFR2 level at 15 uM after 24 hrs by flow cytometry (reference value: 100%); format: cell-based; set-up: scale not given: the % may be the effect or the level left
# [13] = target: Vascular endothelial growth factor receptor 2 (Homo sapiens) (UniProt P35968); assay: Inhibition of VEGFR2 internalization in HMEC1 cells at 15 uM after 24 hrs by immunofluorescence assay; format: cell-based
# [14] = target: Vascular endothelial growth factor receptor 2 (Homo sapiens) (UniProt P35968); assay: Inhibition of VEGFR2 internalization in human A549 cells at 44 uM after 24 hrs by immunofluorescence assay; format: cell-based
# [15] = target: Vascular endothelial growth factor receptor 2 (Homo sapiens) (UniProt P35968); assay: Inhibition of VEGFR2 internalization in HMEC1 cells assessed as membrane VEGFR2 level at 120 uM after 24 hrs by flow cytometry (reference value: 100%); format: cell-based; set-up: scale not given: the % may be the effect or the level left
# [16] = target: Vascular endothelial growth factor receptor 2 (Homo sapiens) (UniProt P35968); assay: Inhibition of VEGFR2 internalization in HMEC1 cells assessed as total VEGFR2 level at 120 uM after 24 hrs by flow cytometry (reference value: 100%); format: cell-based; set-up: scale not given: the % may be the effect or the level left
# [17] = target: Vascular endothelial growth factor receptor 2 (Homo sapiens) (UniProt P35968); assay: Inhibition of VEGFR2 internalization in HMEC1 cells at 120 uM after 24 hrs by immunofluorescence assay; format: cell-based
# [18] = target: Vascular endothelial growth factor receptor 2 (Homo sapiens) (UniProt P35968); assay: Inhibition of VEGFR2 internalization in human A549 cells at 48 uM after 24 hrs by immunofluorescence assay; format: cell-based
# Tubulin (Homo sapiens) [19] = target: T1, Tubulin (Homo sapiens) (UniProt P68371+Q9H4B7+P0DPH7+P68366+Q13509+Q71U36+P04350+Q3ZCM7+P07437+P68363+Q9BQE3+Q6PEY2+Q13885+Q9BVA1+Q9BUF5); assay: Disruption of microtubule network in human A549 cells assessed as compressed and fragmented nuclei at […] after 16 hrs by Hoechst staining based immunofluorescence microscopic method; format: cell-based
# [20] = target: Vascular endothelial growth factor receptor 2 (Homo sapiens) (UniProt P35968); assay: Inhibition of VEGFR2 internalization in HMEC1 cells assessed as membrane VEGFR2 level at […] after 24 hrs by flow cytometry (reference value: 100%); format: cell-based; set-up: scale not given: the % may be the effect or the level left
# [21] = target: Vascular endothelial growth factor receptor 2 (Homo sapiens) (UniProt P35968); assay: Inhibition of VEGFR2 internalization in HMEC1 cells assessed as total VEGFR2 level at […] after 24 hrs by flow cytometry (reference value: 100%); format: cell-based; set-up: scale not given: the % may be the effect or the level left
# Tubulin (Homo sapiens) [22] = target: T1, Tubulin (Homo sapiens); assay: Disruption of microtubule network in human A549 cells assessed as compressed and fragmented nuclei at 18 uM after 16 hrs by Hoechst staining based immunofluorescence microscopic method; format: cell-based
# [23] = target: Vascular endothelial growth factor receptor 2 (Homo sapiens) (UniProt P35968); assay: Inhibition of VEGFR2 internalization in HMEC1 cells assessed as membrane VEGFR2 level at 8 uM after 24 hrs by flow cytometry (reference value: 100%); format: cell-based; set-up: scale not given: the % may be the effect or the level left
# [24] = target: Vascular endothelial growth factor receptor 2 (Homo sapiens) (UniProt P35968); assay: Inhibition of VEGFR2 internalization in HMEC1 cells assessed as total VEGFR2 level at 8 uM after 24 hrs by flow cytometry (reference value: 100%); format: cell-based; set-up: scale not given: the % may be the effect or the level left
# [25] = target: Vascular endothelial growth factor receptor 2 (Homo sapiens) (UniProt P35968); assay: Inhibition of VEGFR2 internalization in HMEC1 cells at 8 uM after 24 hrs by immunofluorescence assay; format: cell-based
# [26] = target: Vascular endothelial growth factor receptor 2 (Homo sapiens) (UniProt P35968); assay: Inhibition of VEGFR2 internalization in human A549 cells at 18 uM after 24 hrs by immunofluorescence assay; format: cell-based
# [27] = target: Vascular endothelial growth factor receptor 2 (Homo sapiens) (UniProt P35968); assay: Inhibition of VEGFR2 internalization in HMEC1 cells assessed as membrane VEGFR2 level at 0.6 uM after 24 hrs by flow cytometry (reference value: 100%); format: cell-based; set-up: scale not given: the % may be the effect or the level left
# [28] = target: Vascular endothelial growth factor receptor 2 (Homo sapiens) (UniProt P35968); assay: Inhibition of VEGFR2 internalization in HMEC1 cells assessed as total VEGFR2 level at 0.6 uM after 24 hrs by flow cytometry (reference value: 100%); format: cell-based; set-up: scale not given: the % may be the effect or the level left
# [29] = target: Vascular endothelial growth factor receptor 2 (Homo sapiens) (UniProt P35968); assay: Inhibition of VEGFR2 internalization in HMEC1 cells at 0.6 uM after 24 hrs by immunofluorescence assay; format: cell-based
# [30] = target: Vascular endothelial growth factor receptor 2 (Homo sapiens) (UniProt P35968); assay: Inhibition of VEGFR2 internalization in human A549 cells at […] after 24 hrs by immunofluorescence assay; format: cell-based
# Tubulin (Homo sapiens) [31] = target: T1, Tubulin (Homo sapiens); assay: Disruption of microtubule network in human A549 cells assessed as compressed and fragmented nuclei at 28 uM after 16 hrs by Hoechst staining based immunofluorescence microscopic method; format: cell-based
# [32] = target: Vascular endothelial growth factor receptor 2 (Homo sapiens) (UniProt P35968); assay: Inhibition of VEGFR2 internalization in HMEC1 cells assessed as membrane VEGFR2 level at 12 uM after 24 hrs by flow cytometry (reference value: 100%); format: cell-based; set-up: scale not given: the % may be the effect or the level left
# [33] = target: Vascular endothelial growth factor receptor 2 (Homo sapiens) (UniProt P35968); assay: Inhibition of VEGFR2 internalization in HMEC1 cells assessed as total VEGFR2 level at 12 uM after 24 hrs by flow cytometry (reference value: 100%); format: cell-based; set-up: scale not given: the % may be the effect or the level left
# [34] = target: Vascular endothelial growth factor receptor 2 (Homo sapiens) (UniProt P35968); assay: Inhibition of VEGFR2 internalization in HMEC1 cells at 12 uM after 24 hrs by immunofluorescence assay; format: cell-based
# [35] = target: Vascular endothelial growth factor receptor 2 (Homo sapiens) (UniProt P35968); assay: Inhibition of VEGFR2 internalization in human A549 cells at 28 uM after 24 hrs by immunofluorescence assay; format: cell-based
# [36] = target: Vascular endothelial growth factor receptor 2 (Homo sapiens) (UniProt P35968); assay: Inhibition of VEGFR2 internalization in HMEC1 cells assessed as membrane VEGFR2 level at 6 uM after 24 hrs by flow cytometry (reference value: 100%); format: cell-based; set-up: scale not given: the % may be the effect or the level left
# [37] = target: Vascular endothelial growth factor receptor 2 (Homo sapiens) (UniProt P35968); assay: Inhibition of VEGFR2 internalization in HMEC1 cells assessed as total VEGFR2 level at 6 uM after 24 hrs by flow cytometry (reference value: 100%); format: cell-based; set-up: scale not given: the % may be the effect or the level left
# [38] = target: Vascular endothelial growth factor receptor 2 (Homo sapiens) (UniProt P35968); assay: Inhibition of VEGFR2 internalization in HMEC1 cells at 6 uM after 24 hrs by immunofluorescence assay; format: cell-based
# Sequence of Vascular endothelial growth factor receptor 2 (Homo sapiens) (P35968 whole entry, the tested form may be a part): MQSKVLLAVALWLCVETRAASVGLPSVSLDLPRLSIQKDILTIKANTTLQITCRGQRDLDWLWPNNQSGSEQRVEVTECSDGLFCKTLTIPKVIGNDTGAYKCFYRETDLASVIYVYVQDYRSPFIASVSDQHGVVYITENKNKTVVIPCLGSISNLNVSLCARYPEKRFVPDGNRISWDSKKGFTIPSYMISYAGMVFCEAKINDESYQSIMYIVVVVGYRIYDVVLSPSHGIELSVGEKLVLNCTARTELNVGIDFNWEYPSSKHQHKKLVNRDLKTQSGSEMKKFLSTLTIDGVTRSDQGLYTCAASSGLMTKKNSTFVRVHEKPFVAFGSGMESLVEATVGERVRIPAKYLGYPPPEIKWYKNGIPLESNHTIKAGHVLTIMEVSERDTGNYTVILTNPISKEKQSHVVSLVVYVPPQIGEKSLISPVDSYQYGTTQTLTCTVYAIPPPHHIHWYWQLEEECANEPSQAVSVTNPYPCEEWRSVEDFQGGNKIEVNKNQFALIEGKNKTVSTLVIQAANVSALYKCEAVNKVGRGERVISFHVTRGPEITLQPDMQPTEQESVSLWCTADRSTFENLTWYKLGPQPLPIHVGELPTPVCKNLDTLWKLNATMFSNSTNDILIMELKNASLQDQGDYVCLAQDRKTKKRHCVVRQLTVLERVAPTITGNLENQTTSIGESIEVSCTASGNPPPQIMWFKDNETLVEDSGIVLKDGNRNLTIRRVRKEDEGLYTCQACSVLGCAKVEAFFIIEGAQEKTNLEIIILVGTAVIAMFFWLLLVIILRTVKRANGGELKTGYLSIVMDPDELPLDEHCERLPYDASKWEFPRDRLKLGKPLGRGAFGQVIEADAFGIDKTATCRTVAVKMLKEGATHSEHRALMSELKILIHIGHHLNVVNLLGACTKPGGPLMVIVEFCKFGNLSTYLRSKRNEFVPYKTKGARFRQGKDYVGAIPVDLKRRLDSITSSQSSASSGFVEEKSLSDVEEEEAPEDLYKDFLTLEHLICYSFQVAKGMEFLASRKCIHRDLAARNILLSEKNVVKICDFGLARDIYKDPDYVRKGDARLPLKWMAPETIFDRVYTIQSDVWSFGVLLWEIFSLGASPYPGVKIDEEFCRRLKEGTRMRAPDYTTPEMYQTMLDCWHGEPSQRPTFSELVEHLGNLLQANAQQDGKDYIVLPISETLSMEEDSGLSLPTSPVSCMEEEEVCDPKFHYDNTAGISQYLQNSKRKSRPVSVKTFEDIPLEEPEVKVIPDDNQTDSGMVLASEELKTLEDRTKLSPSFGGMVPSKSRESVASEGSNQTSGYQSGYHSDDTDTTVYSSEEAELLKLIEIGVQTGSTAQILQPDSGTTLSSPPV
smiles,measurement,setting,value
CCN(CC)CCNC(=O)c1c(C)[nH]c(/C=C2\C(=O)Nc3ccc(F)cc32)c1C [SUNITINIB],IC50,HL-60,7 µM
same,Activity,A549 [1],2.4%
same,Activity,A549 [2],47%
same,Activity,A549 [3],35%
same,Activity,A549 [4],16%
same,Activity,A549 [5],45%
same,Activity,A549 [6],38%
same,IC50,HMEC-1,7 µM
COc1ccc(/C=C\c2cc(OC)c(OC)c(OC)c2)cc1N,Activity,A549 [7],14%
same,Activity,A549 [8],21%
same,Activity,A549 [9],24%
same,Activity,A549 [10],41%
same,Activity,A549 [5],52%
same,Activity,A549 [6],32%
CNC(=O)c1cc(Oc2ccc(NC(=O)Nc3ccc(Cl)c(C(F)(F)F)c3)cc2)ccn1 [SORAFENIB],IC50,HL-60,5 µM
same,Activity,A549 [5],38%
same,Activity,A549 [6],30%
same,IC50,HMEC-1,34 µM
COc1ccc(/C=C\c2cc(OC)c(OC)c(OC)c2)cc1NC(=O)Nc1ccc(Cl)c(C)c1,Activity,[11],80%
same,Activity,[12],100%
same,inhibition,[13],Active
same,inhibition,[14],Active
COc1ccc(/C=C\c2cc(OC)c(OC)c(OC)c2)cc1NC(=O)Nc1cc(C)cc(C)c1,Activity,[15],62%
same,Activity,[16],15%
same,inhibition,[17],Active
same,inhibition,[18],Active
COc1ccc(/C=C\c2cc(OC)c(OC)c(OC)c2)cc1NC(=O)Nc1cccc(Br)c1,Activity,Tubulin (Homo sapiens) [19],Active
COc1ccc(/C=C\c2cc(OC)c(OC)c(OC)c2)cc1NC(=O)Nc1cccc(Cl)c1C,Activity,Tubulin (Homo sapiens) [19],Active
same,Activity,[20],71%
same,Activity,[21],97%
COc1ccc(/C=C\c2cc(OC)c(OC)c(OC)c2)cc1NC(=O)Nc1cccc(C)c1,Activity,Tubulin (Homo sapiens) [22],Active
same,Activity,[23],71%
same,Activity,[24],87%
same,inhibition,[25],Active
same,inhibition,[26],Active
COc1ccc(/C=C\c2cc(OC)c(OC)c(OC)c2)cc1NC(=O)Nc1ccccc1Br,Activity,Tubulin (Homo sapiens) [19],Active
same,Activity,[27],48%
same,Activity,[28],80%
same,inhibition,[29],Active
same,inhibition,[30],Active
COc1ccc(/C=C\c2cc(OC)c(OC)c(OC)c2)cc1NC(=O)Nc1ccc(C)c(C)c1,Activity,Tubulin (Homo sapiens) [31],Active
same,Activity,[32],61%
same,Activity,[33],148%
same,inhibition,[34],Active
same,inhibition,[35],Active
COc1ccc(/C=C\c2cc(OC)c(OC)c(OC)c2)cc1NC(=O)Nc1ccccc1Cl,Activity,[36],43%
same,Activity,[37],46%
same,inhibition,[38],Active
same,inhibition,[30],Active

# — ChEMBL document CHEMBL4382260, “Synthesis and biological evaluation as antiangiogenic agents of ureas derived from 3'-aminocombretastatin A-4” (Eur J Med Chem, 2019)
